Source: patent US20080279907A1, “Antimicrobial medical devices and methods for making and using same” (Ash Access Technology, Inc., priority 2007, published 2008)

Legend:
[1] = Desorption of parabens from paraben impregnated polycarbonate catheter pieces in 0.24 M sodium citrate pH 6.2 (HPLC); assay type: physicochemical
Method: One inch polycarbonate catheter pieces including a surface area of about 4.64 cm^2 were impregnated with methyl paraben and propyl paraben. A solution of 100% 1,2-propanediol was prepared with 9% methyl paraben and 2% propyl paraben. Pairs of the one inch catheter pieces were placed into three 25 ml flasks including 10 ml of the 1,2-propanediol and paraben solution. The flasks including the catheter pieces were placed on a shaker at 220 rpm and 27° C. for two, four, or nine hour time periods. At the end of each time period, the catheter pieces were removed, rinsed with distilled water, and dried.
Desorption analysis of the paraben impregnated catheter pieces was performed in 0.24 M sodium citrate with a pH of 6.2. The total amount of either methyl paraben or propyl paraben released from the catheter pieces was calculated using HPLC analysis performed with a Waters Alliance 2690 including a 996 Photodiode Array Detector. Each calculation used a solution of HPLC grade H2O, methanol (MeOH), and acetonitrile (CAN) which were pre-filtered through a Millipore 0.45 μm nylon filter before use. Trifluoracetic acid (TFA) was added to H2O and acetonitrile (ACN) to 0.1%. A Waters Symmetry column (C8 3.9×150 mm, 5 μm) was applied with a Waters guard column (Waters, Sentry Guard column, Nova-Pak C18, 60A, 4 μm 3.9×20 mm).
A gradient of 67% H2O/33% ACN was used for 6.5 min, ramped to 45 %/55% from 6.5 to 7.0 min, and kept at 45%/55% until 15.0 min, at 15.0 min the concentration reverted to 67%/33%, and the system was run until 18 min. Injection volume for each sample was 10 μl and samples and column were run at ambient temperature.
Table 2 includes the graphical data represented in FIG. 8 and associated with the desorption of propyl paraben from the paraben impregnated catheter pieces prepared as discussed above. Again, the samples were impregnated only with parabens and desorbed in 10 ml 0.24 M Na-citrate, pH 6.2 over time.

[2] = Perfusion of parabens and methylene blue through polycarbonate membrane in perfusion chamber (HPLC of lower chamber); assay type: physicochemical
Method: An experiment was performed to determine a method for perfusing methylene blue, methyl paraben, and propyl paraben through a polycarbonate membrane with causing only minimal changes to the strength and elasticity of the membrane. In FIG. 12, there is illustrated a perfusion chamber system 50 used during the experiment. System 50 includes an upper chamber 51 and a lower chamber 52 separated by a polycarbonate membrane 53 having a thickness of 0.60 mm. The upper and lower chambers 51, 52 are generally structured to hold 10.5 cm^3 or 10.5 ml of fluid. The upper chamber 51 was connected to a peristaltic pump (not shown) and the lower chamber 52 was filled with distilled water. First and second solutions, respectively including the parabens and the methylene blue, were prepared in accordance with the method set forth in EXAMPLE 6 above. As best seen in Tables 6 and 7 below, the solutions were connected to the pump and passed through the first chamber 51 at a constant rate at 37° C. over various lengths of time.
Table 6 includes data obtained from HPLC analysis comparing the methyl paraben, propyl paraben, and methylene blue concentrations in the lower chamber 52. The parameters for the methyl and propyl paraben and methylene blue treatments are indicated in the left hand columns.

[3] = lower chamber, 20% PG/80% DI H2O (0.9% MP, 0.2% PP) ~9 hrs at 37 C., then MB ~10 days

## CCCOC(=O)c1ccc(O)cc1 [PP, propyl paraben]
[1]; nearly 3 months, FIGS. 8 and 9
  desorption by the end of the study: negligible desorption
[1]; paraben impregnated catheter pieces, 0.24 M Na-citrate pH 6.2
  period of significant release: 20 days
[1]; treatment 2 hrs (100% PG, 9% MP, 2% PP), time 1 hour
  Total PP released (mg)/1″ catheter: 0.048 mg/1″ catheter
[1]; treatment 2 hrs (100% PG, 9% MP, 2% PP), time 3 hours
  Total PP released (mg)/1″ catheter: 0.081 mg/1″ catheter
[1]; treatment 2 hrs (100% PG, 9% MP, 2% PP), time 7 hours
  Total PP released (mg)/1″ catheter: 0.121 mg/1″ catheter
[1]; treatment 2 hrs (100% PG, 9% MP, 2% PP), time 24 hours
  Total PP released (mg)/1″ catheter: 0.121 mg/1″ catheter
[1]; treatment 2 hrs (100% PG, 9% MP, 2% PP), time 4 days
  Total PP released (mg)/1″ catheter: 0.153 mg/1″ catheter
[1]; treatment 2 hrs (100% PG, 9% MP, 2% PP), time 5 days
  Total PP released (mg)/1″ catheter: 0.182 mg/1″ catheter
[1]; treatment 2 hrs (100% PG, 9% MP, 2% PP), time 6 days
  Total PP released (mg)/1″ catheter: 0.209 mg/1″ catheter
[1]; treatment 2 hrs (100% PG, 9% MP, 2% PP), time 8 days
  Total PP released (mg)/1″ catheter: 0.239 mg/1″ catheter
[1]; treatment 2 hrs (100% PG, 9% MP, 2% PP), time 11 days
  Total PP released (mg)/1″ catheter: 0.264 mg/1″ catheter
[1]; treatment 2 hrs (100% PG, 9% MP, 2% PP), time 13 days
  Total PP released (mg)/1″ catheter: 0.288 mg/1″ catheter
[1]; treatment 2 hrs (100% PG, 9% MP, 2% PP), time 15 days
  Total PP released (mg)/1″ catheter: 0.311 mg/1″ catheter
[1]; treatment 2 hrs (100% PG, 9% MP, 2% PP), time 18 days
  Total PP released (mg)/1″ catheter: 0.332 mg/1″ catheter
[1]; treatment 2 hrs (100% PG, 9% MP, 2% PP), time 22 days
  Total PP released (mg)/1″ catheter: 0.352 mg/1″ catheter
[1]; treatment 2 hrs (100% PG, 9% MP, 2% PP), time 29 days
  Total PP released (mg)/1″ catheter: 0.37 mg/1″ catheter
[1]; treatment 2 hrs (100% PG, 9% MP, 2% PP), time 36 days
  Total PP released (mg)/1″ catheter: 0.387 mg/1″ catheter
[1]; treatment 2 hrs (100% PG, 9% MP, 2% PP), time 50 days
  Total PP released (mg)/1″ catheter: 0.404 mg/1″ catheter
[1]; treatment 2 hrs (100% PG, 9% MP, 2% PP), time 67 days
  Total PP released (mg)/1″ catheter: 0.417 mg/1″ catheter
[1]; treatment 2 hrs (100% PG, 9% MP, 2% PP), time 81 days
  Total PP released (mg)/1″ catheter: 0.429 mg/1″ catheter
[1]; treatment 4 hrs (100% PG, 9% MP, 2% PP), time 1 hour
  Total PP released (mg)/1″ catheter: 0.007 mg/1″ catheter
[1]; treatment 4 hrs (100% PG, 9% MP, 2% PP), time 3 hours
  Total PP released (mg)/1″ catheter: 0.069 mg/1″ catheter
[1]; treatment 4 hrs (100% PG, 9% MP, 2% PP), time 7 hours
  Total PP released (mg)/1″ catheter: 0.138 mg/1″ catheter
[1]; treatment 4 hrs (100% PG, 9% MP, 2% PP), time 24 hours
  Total PP released (mg)/1″ catheter: 0.208 mg/1″ catheter
[1]; treatment 4 hrs (100% PG, 9% MP, 2% PP), time 4 days
  Total PP released (mg)/1″ catheter: 0.254 mg/1″ catheter
[1]; treatment 4 hrs (100% PG, 9% MP, 2% PP), time 5 days
  Total PP released (mg)/1″ catheter: 0.293 mg/1″ catheter
[1]; treatment 4 hrs (100% PG, 9% MP, 2% PP), time 6 days
  Total PP released (mg)/1″ catheter: 0.326 mg/1″ catheter
[1]; treatment 4 hrs (100% PG, 9% MP, 2% PP), time 8 days
  Total PP released (mg)/1″ catheter: 0.362 mg/1″ catheter
[1]; treatment 4 hrs (100% PG, 9% MP, 2% PP), time 11 days
  Total PP released (mg)/1″ catheter: 0.393 mg/1″ catheter
[1]; treatment 4 hrs (100% PG, 9% MP, 2% PP), time 13 days
  Total PP released (mg)/1″ catheter: 0.424 mg/1″ catheter
[1]; treatment 4 hrs (100% PG, 9% MP, 2% PP), time 15 days
  Total PP released (mg)/1″ catheter: 0.45 mg/1″ catheter
[1]; treatment 4 hrs (100% PG, 9% MP, 2% PP), time 18 days
  Total PP released (mg)/1″ catheter: 0.476 mg/1″ catheter
[1]; treatment 4 hrs (100% PG, 9% MP, 2% PP), time 22 days
  Total PP released (mg)/1″ catheter: 0.497 mg/1″ catheter
[1]; treatment 4 hrs (100% PG, 9% MP, 2% PP), time 29 days
  Total PP released (mg)/1″ catheter: 0.518 mg/1″ catheter
[1]; treatment 4 hrs (100% PG, 9% MP, 2% PP), time 36 days
  Total PP released (mg)/1″ catheter: 0.539 mg/1″ catheter
[1]; treatment 4 hrs (100% PG, 9% MP, 2% PP), time 50 days
  Total PP released (mg)/1″ catheter: 0.569 mg/1″ catheter
[1]; treatment 4 hrs (100% PG, 9% MP, 2% PP), time 67 days
  Total PP released (mg)/1″ catheter: 0.585 mg/1″ catheter
[1]; treatment 4 hrs (100% PG, 9% MP, 2% PP), time 81 days
  Total PP released (mg)/1″ catheter: 0.6 mg/1″ catheter
[1]; treatment 9 hrs (100% PG, 9% MP, 2% PP), time 1 hour
  Total PP released (mg)/1″ catheter: 0.082 mg/1″ catheter
[1]; treatment 9 hrs (100% PG, 9% MP, 2% PP), time 3 hours
  Total PP released (mg)/1″ catheter: 0.124 mg/1″ catheter
[1]; treatment 9 hrs (100% PG, 9% MP, 2% PP), time 7 hours
  Total PP released (mg)/1″ catheter: 0.175 mg/1″ catheter
[1]; treatment 9 hrs (100% PG, 9% MP, 2% PP), time 24 hours
  Total PP released (mg)/1″ catheter: 0.221 mg/1″ catheter
[1]; treatment 9 hrs (100% PG, 9% MP, 2% PP), time 4 days
  Total PP released (mg)/1″ catheter: 0.279 mg/1″ catheter
[1]; treatment 9 hrs (100% PG, 9% MP, 2% PP), time 5 days
  Total PP released (mg)/1″ catheter: 0.331 mg/1″ catheter
[1]; treatment 9 hrs (100% PG, 9% MP, 2% PP), time 6 days
  Total PP released (mg)/1″ catheter: 0.375 mg/1″ catheter
[1]; treatment 9 hrs (100% PG, 9% MP, 2% PP), time 8 days
  Total PP released (mg)/1″ catheter: 0.422 mg/1″ catheter
[1]; treatment 9 hrs (100% PG, 9% MP, 2% PP), time 11 days
  Total PP released (mg)/1″ catheter: 0.463 mg/1″ catheter
[1]; treatment 9 hrs (100% PG, 9% MP, 2% PP), time 13 days
  Total PP released (mg)/1″ catheter: 0.5 mg/1″ catheter
[1]; treatment 9 hrs (100% PG, 9% MP, 2% PP), time 15 days
  Total PP released (mg)/1″ catheter: 0.533 mg/1″ catheter
[1]; treatment 9 hrs (100% PG, 9% MP, 2% PP), time 18 days
  Total PP released (mg)/1″ catheter: 0.565 mg/1″ catheter
[1]; treatment 9 hrs (100% PG, 9% MP, 2% PP), time 22 days
  Total PP released (mg)/1″ catheter: 0.594 mg/1″ catheter
[1]; treatment 9 hrs (100% PG, 9% MP, 2% PP), time 29 days
  Total PP released (mg)/1″ catheter: 0.622 mg/1″ catheter
[1]; treatment 9 hrs (100% PG, 9% MP, 2% PP), time 36 days
  Total PP released (mg)/1″ catheter: 0.65 mg/1″ catheter
[1]; treatment 9 hrs (100% PG, 9% MP, 2% PP), time 50 days
  Total PP released (mg)/1″ catheter: 0.687 mg/1″ catheter
[1]; treatment 9 hrs (100% PG, 9% MP, 2% PP), time 67 days
  Total PP released (mg)/1″ catheter: 0.708 mg/1″ catheter
[1]; treatment 9 hrs (100% PG, 9% MP, 2% PP), time 81 days
  Total PP released (mg)/1″ catheter: 0.727 mg/1″ catheter
[2]; 0.60 mm polycarbonate membrane, 37° C.
  time until perfused through the membrane and detected in the lower chamber: within two hours
[2]; [3]
  PP conc: 0.01 mg/mL
  Total mg PP in 10.5 ml lower chamber: 0.105 mg
